Laboratory results as given in patent US8895509B2, “MIR-200 family induces mesenchymal-to-epithelial transition (MET) in ovarian cancer cells” (Georgia Tech Research Corporation, priority 2010, dated 2014).

System: HEY cells
Experiment: microarray profiling (Affymetrix HG-U133 Plus 2.0) of miR-429 transfected HEY cells
Type: cell-based, human
Details: for Fold-change: miR-429 transfected HEY cells
Protocol: 6×10^4 cells per well were seeded in 24-well plates. After 24 h, cells were transfected with 30 nM of miR-429 and miR-320 miRNA oligonucleotides (Ambion, Austin, Tex.) using Lipofectamine 2000 reagent (Invitrogen, Carlsbad, Calif.). The Ambion Pre-miRNA Precursor Negative Control was used as a control. Three days after transfection, cells were split and transfected again. This process was repeated every 3 days until 21 days when cells were assayed for response.
Microarray analyses were performed using the Affymetrix system (HG-U133 Plus 2.0; Santa Clara, Calif.) as previously described [Bowen et al., BMC Med Genomics 2009, 2:71]. Briefly, the expression data were analyzed using MAS 5.0 Statistical Algorithm encoded in the Affymetrix Expression Console application. The expression values were normalized across samples by Z-score calculation using Spotfire Decision Site software. […] Gene enrichment analyses were carried out using GeneGO (http://www.genego.com/) gene ontology software.

[1] = miR-429 transfected cells vs controls, p<0.015, fold change 1.5

miR-429: miR-200 family member; mature miRNA UAAUACUGUCUGGUAAAACCGU (SEQ ID NO: 6); miRNA oligonucleotide (Ambion) transfected at 30 nM (listed as RNA, chemistry not given here; listed as Homo sapiens) [miR-200 family member; miRNA oligonucleotide (Ambion) transfected at 30 nM]
Fold change (miR-429 transfected HEY cells relative to negative controls) (gene AARS): −2.57 | Fold change (miR-429 transfected HEY cells relative to negative controls) (gene ABCF2): −3.48 | Fold change (miR-429 transfected HEY cells relative to negative controls) (gene ALDH1L2): −11.31 | Fold change (miR-429 transfected HEY cells relative to negative controls) (gene ANK2): −3.58 | Fold change (miR-429 transfected HEY cells relative to negative controls) (gene ANKRD23): −7.62 | Fold change (miR-429 transfected HEY cells relative to negative controls) (gene ASAM): −3.48 | Fold change (miR-429 transfected HEY cells relative to negative controls) (gene ASNS): −6.82 | Fold-change (gene B3GALNT2): −2.16 | Fold change (miR-429 transfected HEY cells relative to negative controls) (gene BCHE): −2.93 | Fold change (miR-429 transfected HEY cells relative to negative controls) (gene C6orf105): −2.48 | Fold change (miR-429 transfected HEY cells relative to negative controls) (gene C11orf57): −2.41 | Fold change (miR-429 transfected HEY cells relative to negative controls) (gene C12orf39): −10.06 | Fold change (miR-429 transfected HEY cells relative to negative controls) (gene C12orf55): −6.06 | Fold change (miR-429 transfected HEY cells relative to negative controls) (gene C17orf51): −3.46 | change in expression by microarray (gene CAV2 (epithelial marker)): up-regulated | Fold change (miR-429 transfected HEY cells relative to negative controls) (gene CBS): −2.68 | Fold change (miR-429 transfected HEY cells relative to negative controls) (gene CCDC148): −3.39 | Fold change (miR-429 transfected HEY cells relative to negative controls) (gene CCDC152): −3.10 | Fold change (miR-429 transfected HEY cells relative to negative controls) (gene CCND2): −4.03 | Fold change (miR-429 transfected HEY cells relative to negative controls) (gene CCNJ): −2.45 | Fold change (miR-429 transfected HEY cells relative to negative controls) (gene CDC42EP1): −3.48 | Fold change (miR-429 transfected HEY cells relative to negative controls) (gene CDKAL1): −2.64 | Fold change (miR-429 transfected HEY cells relative to negative controls) (gene CDO1): −13.45 | Fold-change (gene CFL2): −1.75 | Fold change (miR-429 transfected HEY cells relative to negative controls) (gene CHST10): −4.03 | Fold change (miR-429 transfected HEY cells relative to negative controls) (gene CLGN): −2.79 | Fold change (miR-429 transfected HEY cells relative to negative controls) (gene COLEC12): −16.11 | Fold change (miR-429 transfected HEY cells relative to negative controls) (gene CXCL3): −2.57 | Fold change (miR-429 transfected HEY cells relative to negative controls) (gene CYCS): −2.73 | Fold change (miR-429 transfected HEY cells relative to negative controls) (gene DDR2): −2.68 | Fold-change (gene DNAJB4): −1.53 | Fold-change (gene DPY19L1): −1.64 | change in expression by microarray (gene DSP (epithelial marker)): up-regulated | Fold-change (gene EIF2B5): −2.10 | change in expression by microarray (gene EPCAM (epithelial marker)): up-regulated | Fold change (miR-429 transfected HEY cells relative to negative controls) (gene EPHB1): −4.06 | Fold change (miR-429 transfected HEY cells relative to negative controls) (gene ERN1): −3.51 | Fold change (miR-429 transfected HEY cells relative to negative controls) (gene EXOSC6): −2.87 | Fold change (miR-429 transfected HEY cells relative to negative controls) (gene F2RL2): −5.35 | Fold change (miR-429 transfected HEY cells relative to negative controls) (gene FLJ34077): −2.73 | Fold change (miR-429 transfected HEY cells relative to negative controls) (gene FOXP3): −3.76 | Fold change (miR-429 transfected HEY cells relative to negative controls) (gene GALNT12): −2.39 | Fold change (miR-429 transfected HEY cells relative to negative controls) (gene GART): −3.94 | Fold change (miR-429 transfected HEY cells relative to negative controls) (gene GAS7): −12.55 | Fold change (miR-429 transfected HEY cells relative to negative controls) (gene GLIPR1): −2.73 | Fold change (miR-429 transfected HEY cells relative to negative controls) (gene GLT8D2): −4.76 | Fold change (miR-429 transfected HEY cells relative to negative controls) (gene GPATCH4): −2.87 | Fold-change (gene GREM1): −2.10 | Fold change (miR-429 transfected HEY cells relative to negative controls) (gene GRK4): −3.14 | Fold change (miR-429 transfected HEY cells relative to negative controls) (gene HIF3A): −3.12 | Fold change (miR-429 transfected HEY cells relative to negative controls) (gene HORMAD1): −10.48 | Fold change (miR-429 transfected HEY cells relative to negative controls) (gene HS6ST3): −2.64 | Fold change (miR-429 transfected HEY cells relative to negative controls) (gene HSPA9): −2.48 | Fold change (miR-429 transfected HEY cells relative to negative controls) (gene INTS4): −2.81 | Fold change (miR-429 transfected HEY cells relative to negative controls) (gene JDP2): −3.46 | Fold change (miR-429 transfected HEY cells relative to negative controls) (gene KIAA1853): −3.32 | Fold change (miR-429 transfected HEY cells relative to negative controls) (gene KLHL13): −2.57 | Fold-change (gene LDLRAD3): −1.74 | Fold change (miR-429 transfected HEY cells relative to negative controls) (gene LMO4): −3.14 | Fold change (miR-429 transfected HEY cells relative to negative controls) (gene LOC148189): −2.69 | Fold change (miR-429 transfected HEY cells relative to negative controls) (gene LOC148987): −3.07 | Fold change (miR-429 transfected HEY cells relative to negative controls) (gene LOC158381): −7.31 | Fold change (miR-429 transfected HEY cells relative to negative controls) (gene LOC284561): −38.32 | Fold change (miR-429 transfected HEY cells relative to negative controls) (gene LOC286178): −10.56 | Fold-change (gene LOC339290): −1.87 | Fold change (miR-429 transfected HEY cells relative to negative controls) (gene LOC401497): −9.19 | Fold change (miR-429 transfected HEY cells relative to negative controls) (gene LOC439949): −2.48 | Fold change (miR-429 transfected HEY cells relative to negative controls) (gene LRP4): −2.66 | Fold change (miR-429 transfected HEY cells relative to negative controls) (gene MARS): −6.59 | Fold change (miR-429 transfected HEY cells relative to negative controls) (gene MARS2): −2.50 | Fold change (miR-429 transfected HEY cells relative to negative controls) (gene MERTK): −3.03 | Fold change (miR-429 transfected HEY cells relative to negative controls) (gene MGC16121): −3.46 | Fold change (miR-429 transfected HEY cells relative to negative controls) (gene MRAP): −3.05 | Fold change (miR-429 transfected HEY cells relative to negative controls) (gene NAV3): −4.35 | Fold change (miR-429 transfected HEY cells relative to negative controls) (gene NOC2L): −26.91 | Fold change (miR-429 transfected HEY cells relative to negative controls) (gene OSTM1): −4.35 | Fold change (miR-429 transfected HEY cells relative to negative controls) (gene PAPPA2): −23.75 | Fold change (miR-429 transfected HEY cells relative to negative controls) (gene PCK2): −4.44 | Fold change (miR-429 transfected HEY cells relative to negative controls) (gene PCOTH): −13.93 | Fold change (miR-429 transfected HEY cells relative to negative controls) (gene PHGDH): −3.78 | Fold change (miR-429 transfected HEY cells relative to negative controls) (gene PITX2): −2.45 | Fold-change (gene PRTG): −1.61 | Fold change (miR-429 transfected HEY cells relative to negative controls) (gene PSAT1): −6.92 | Fold change (miR-429 transfected HEY cells relative to negative controls) (gene PTPN13): −3.10 | Fold change (miR-429 transfected HEY cells relative to negative controls) (gene PYGO1): −3.61 | Fold-change (gene RDH10): −2.08 | Fold change (miR-429 transfected HEY cells relative to negative controls) (gene RGMB): −2.89 | Fold change (miR-429 transfected HEY cells relative to negative controls) (gene RPL22L1): −2.45 | Fold-change (gene SENP5): −1.80 | Fold change (miR-429 transfected HEY cells relative to negative controls) (gene SESN2): −3.61 | Fold change (miR-429 transfected HEY cells relative to negative controls) (gene SGSH): −2.57 | Fold change (miR-429 transfected HEY cells relative to negative controls) (gene SH3PXD2B): −5.13 | Fold change (miR-429 transfected HEY cells relative to negative controls) (gene SHANK2): −10.85 | Fold-change (gene SHMT2): −2.04 | Fold change (miR-429 transfected HEY cells relative to negative controls) (gene SLC1A4): −4.32 | Fold change (miR-429 transfected HEY cells relative to negative controls) (gene SLC1A5): −3.01 | Fold change (miR-429 transfected HEY cells relative to negative controls) (gene SLC7A11): −5.46 | Fold change (miR-429 transfected HEY cells relative to negative controls) (gene SLC24A3): −10.20 | Fold change (miR-429 transfected HEY cells relative to negative controls) (gene SLC27A4): −6.23 | Fold change (miR-429 transfected HEY cells relative to negative controls) (gene SNORA68): −14.52 | Fold change (miR-429 transfected HEY cells relative to negative controls) (gene SRCAP): −2.43 | Fold-change (gene STARD13): −1.78 | Fold change (miR-429 transfected HEY cells relative to negative controls) (gene SYF2): −12.64 | Fold change (miR-429 transfected HEY cells relative to negative controls) (gene SYT11): −2.66 | Fold-change (gene TIGD1): −2.38 | Fold change (miR-429 transfected HEY cells relative to negative controls) (gene TLR1): −15.24 | Fold change (miR-429 transfected HEY cells relative to negative controls) (gene TMEM156): −2.79 | Fold change (miR-429 transfected HEY cells relative to negative controls) (gene TMEM201): −5.58 | Fold-change (gene TSGA14): −2.33 | change in expression by microarray (gene TSPAN13 (epithelial marker)): up-regulated | Fold-change (gene WDR43): −1.88 | Fold change (miR-429 transfected HEY cells relative to negative controls) (gene YARS): −2.45 | Fold-change (gene ZBTB24): −1.87 | change in expression by microarray (gene ZEB2): did not display a significant change in expression | Fold change (miR-429 transfected HEY cells relative to negative controls) (gene ZNF30): −2.62 | Fold-change (gene ZNF697): −1.91 | Fold change (miR-429 transfected HEY cells relative to negative controls) (gene hCG_1654703): −7.46 | number of genes significantly down regulated [1]: 296 genes | number of genes significantly up regulated [1]: 373 genes | number of genes displaying significant changes in expression (miR-429 transfected cells vs negative control): 669 genes
